Experiment [1] has as its system Sp1 recruitment into the Sp1 promoter. As to the kind of experiment: ChIP assay, tumors formed by PANC-1 cells in nude mice. It is filed as in vivo. To be noted: tumors from treated mice (BVZ, MIT, B+M). The protocol:
FIG. 15. Effects of treatment with BVZ and MIT on Sp1 recruitment into the Sp1 promoter in human pancreatic cancer cells in vitro and in vivo. A, schematic structures of the minimal Sp1 promoters. The nucleotide positions and sequences of Sp1-binding sites and polymerase chain reaction forward and reverse primers flanking those sites for ChIP assay are shown. B, Sp1 and VEGF promoter reporter constructs were transfected into PANC-1 cells in triplicate and incubated for 12 hours. The cells were then incubated for another 24 hours in a medium alone or a medium containing 100 μg/ml BVZ or 0.1 μM MIT. Total protein lysates were harvested from the cell cultures for measurement of Sp1 and VEGF promoter activity using a luciferase assay kit. The relative Sp1 and VEGF promoter activities were assessed, and the activity in treated groups was expressed as the fold change of that in their respective control groups. C and D, chromatin was extracted from (C) PANC-1 cells that were incubated in vitro for 2 days in a medium alone or a medium containing 100 μg/ml BVZ or 0.1 μM MIT and (D) tumors formed by PANC-1 cells in nude mice that received treatment as described in FIG. 2A. […]

In experiment [2] the test system is PANC-1 cells. Nature of the experiment: PANC-1 cells injected into the pancreas, survival and metastasis. It is filed as in vivo, nude mice. To be noted: BVZ 25 μg, MIT 0.10 mg/kg, or B+M; compared with PBS. Here is the method:
FIG. 12. Prolonged survival of mice that received treatment with BVZ and MIT in xenograft models of human pancreatic cancer. PANC-1 cells were injected into the pancreas of nude mice (17 to 20 mice/group). The mice received treatment as described in FIG. 2. The entire experiment was terminated 120 days after tumor-cell injection. A, animal survival was monitored daily until termination of the experiment. Cum, cumulative. B, tumor growth in the pancreas and metastasis in the liver and/or other organs were evaluated and expressed as the incidence (%).
Statistical analysis. Each experiment was performed independently at least twice with similar results; one representative experiment is presented. The significance of the in vitro data was determined using Student's t-test (two-tailed), whereas the significance of the in vivo data was determined using the two-tailed Mann-Whitney U test. For the in vivo experiments, overall survival was calculated by the method of Kaplan and Meier. Log rank test was used to compare the survival duration between groups. P≦0.05 was deemed significant.
Prolonged survival of xenograft models of human pancreatic cancer that received treatment with BVZ and MIT.

Take bevacizumab [BVZ]: the “Sp1 recruitment to its own promoter” value in experiment [1] was “significantly increase Sp1 recruitment to its own promoter”. For the same substance, the animal survival result in experiment [2] is “slightly increased survival rate”.

The values are drawn from patent US20080274121A1, “Inhibition of Angiogenesis by Mithramycin” (priority 2007, published 2008).
